# Experimental data as given in ChEMBL document CHEMBL1201862, “PubChem BioAssay data set” (2004).
# Activity calls are given as the source filed them.
# What was measured:
# [1] = system: Vero; experiment: cells; type: functional; conditions: Chlorocebus sabaeus
# [2] = A Cell Based Secondary Assay To Explore Cytotoxicity of Compounds that Sensitize Mycobacterium Tuberculosis to Beta-Lactam Antibiotics.; type: functional
# [3] = system: HEK293; experiment: NOD1 signaling inhibitors, primary screen, cell-based, luminescence, uHTS (AID 1578); type: functional; conditions: Homo sapiens
# [4] = system: HEK293; experiment: cells; type: functional, cell-based; conditions: Homo sapiens
# [5] = system: HEK293; experiment: cells; type: functional, cell-based; conditions: Homo sapiens; remark: listed apart in the source
# [6] = molecular target: Nucleotide-binding oligomerization domain-containing protein 2 (Homo sapiens, UniProt Q9HC29); experiment: NOD2 signaling inhibitors, cell-based, luminescence, uHTS, HEK293 (AID 1566); type: functional
# Sequence of Nucleotide-binding oligomerization domain-containing protein 2 (Q9HC29 whole entry, the tested form may be a part): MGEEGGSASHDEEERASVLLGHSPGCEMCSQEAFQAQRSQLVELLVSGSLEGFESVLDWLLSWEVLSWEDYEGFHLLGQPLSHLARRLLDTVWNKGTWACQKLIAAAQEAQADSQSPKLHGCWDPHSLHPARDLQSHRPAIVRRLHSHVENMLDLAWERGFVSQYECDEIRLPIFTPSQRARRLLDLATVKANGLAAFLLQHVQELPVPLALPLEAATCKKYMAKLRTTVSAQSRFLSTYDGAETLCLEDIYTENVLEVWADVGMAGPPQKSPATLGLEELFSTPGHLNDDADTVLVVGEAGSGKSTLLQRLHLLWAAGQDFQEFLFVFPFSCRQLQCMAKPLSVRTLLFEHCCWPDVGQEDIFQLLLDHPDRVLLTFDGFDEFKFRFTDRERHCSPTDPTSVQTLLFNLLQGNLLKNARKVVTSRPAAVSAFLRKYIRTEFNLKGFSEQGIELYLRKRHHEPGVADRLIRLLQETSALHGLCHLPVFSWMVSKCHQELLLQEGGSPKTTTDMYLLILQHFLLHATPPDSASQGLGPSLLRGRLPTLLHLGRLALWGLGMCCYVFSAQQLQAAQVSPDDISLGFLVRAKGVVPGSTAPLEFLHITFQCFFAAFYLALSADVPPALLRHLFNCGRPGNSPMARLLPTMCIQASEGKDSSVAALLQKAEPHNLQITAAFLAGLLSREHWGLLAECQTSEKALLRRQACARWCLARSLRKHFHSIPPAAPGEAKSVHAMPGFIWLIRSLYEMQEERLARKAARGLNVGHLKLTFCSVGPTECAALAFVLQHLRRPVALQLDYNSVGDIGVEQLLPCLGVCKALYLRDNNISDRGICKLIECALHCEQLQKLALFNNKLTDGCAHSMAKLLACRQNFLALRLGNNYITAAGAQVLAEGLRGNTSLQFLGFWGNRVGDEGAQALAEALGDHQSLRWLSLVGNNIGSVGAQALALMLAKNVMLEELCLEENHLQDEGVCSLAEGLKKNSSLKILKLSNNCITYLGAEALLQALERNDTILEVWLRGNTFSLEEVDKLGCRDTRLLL
# [7] = system: HEK293; experiment: NOD2 signaling inhibitors in MDP-stimulated cells, cell-based, uHTS, luminescence (AID 2001); type: functional; conditions: Homo sapiens
# [8] = system: HEK293; experiment: cells; type: functional, cell-based; conditions: Homo sapiens; remark: listed apart in the source
# [9] = Shn3 3'UTR reporter inhibitors, dose response, cell-based, Clone20 osteoblasts, firefly luciferase, cherry-picked (AID 624132); type: functional;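 further: firefly luciferase luminescence from reporter carrying the Shn3 3'UTR in osteoblasts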
# [10] = control 3'UTR Renilla luciferase suppression, dose response, counter-screen for Shn3 inhibitor project, cell-based, Clone20-Shn3RL, cherry-picked (AID 624133); type: functional
# [11] = molecular target: Induced myeloid leukemia cell differentiation protein Mcl-1 (Homo sapiens, UniProt Q07820); type: functional
# Sequence of Induced myeloid leukemia cell differentiation protein Mcl-1 (Q07820 whole entry): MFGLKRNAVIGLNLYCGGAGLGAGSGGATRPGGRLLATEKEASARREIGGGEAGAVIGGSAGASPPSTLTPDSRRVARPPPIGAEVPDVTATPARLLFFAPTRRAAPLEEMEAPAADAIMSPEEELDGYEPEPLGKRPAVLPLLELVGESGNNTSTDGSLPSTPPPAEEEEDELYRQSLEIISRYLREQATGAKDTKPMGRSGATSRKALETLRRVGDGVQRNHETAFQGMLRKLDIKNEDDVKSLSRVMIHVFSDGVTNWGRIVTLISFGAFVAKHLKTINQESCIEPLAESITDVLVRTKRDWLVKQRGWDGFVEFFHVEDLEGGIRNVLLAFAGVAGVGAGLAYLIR
# [12] = microbe, parasite or virus in culture; type: functional; conditions: Mycobacterium tuberculosis
# [13] = molecular target: Prothrombin (Homo sapiens, UniProt P00734); experiment: Thrombin 1536 HTS Dose Response Confirmation. [Related pubchem assays: 1046 (Thrombin 1536 HTS; hits were confirmed in this assay)]; type: functional
# [14] = growth suppression of PTEN-null colon cells, dose response, cell-based, HCT116 PTEN knockout (AID 1047); type: functional;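 further: HCT116 colon tumor cells with PTEN knocked out; cells exposed to compound for 60 hours before readout; potency for loss of cell viability measured by luminescence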
# [15] = growth suppression of beta-catenin-knockout colon cells, dose response, cell-based, HCT116, human colon tumor (AID 1045); type: functional;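 further: HCT116 colon tumor cells with beta catenin knocked out; cells exposed to compound for 60 hours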
# [16] = Luminescence-based cell-based high throughput dose response assay to identify activators of the DAF-12 from the parasite S. stercoralis (ssDAF-12).; type: functional
# [17] = molecular target: Paired box protein Pax-8 (Homo sapiens, UniProt Q06710); experiment: inhibitors of PAX8-driven TPO luciferase reporter, dose response, RMG-I cells, cherry-pick (AID 687027); type: functional, cell-based;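 further: luciferase reporter driven by Pax8 target thyroperoxidase promoter measured by SteadyGlo luminescence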
# Sequence of Paired box protein Pax-8 (Q06710 whole entry): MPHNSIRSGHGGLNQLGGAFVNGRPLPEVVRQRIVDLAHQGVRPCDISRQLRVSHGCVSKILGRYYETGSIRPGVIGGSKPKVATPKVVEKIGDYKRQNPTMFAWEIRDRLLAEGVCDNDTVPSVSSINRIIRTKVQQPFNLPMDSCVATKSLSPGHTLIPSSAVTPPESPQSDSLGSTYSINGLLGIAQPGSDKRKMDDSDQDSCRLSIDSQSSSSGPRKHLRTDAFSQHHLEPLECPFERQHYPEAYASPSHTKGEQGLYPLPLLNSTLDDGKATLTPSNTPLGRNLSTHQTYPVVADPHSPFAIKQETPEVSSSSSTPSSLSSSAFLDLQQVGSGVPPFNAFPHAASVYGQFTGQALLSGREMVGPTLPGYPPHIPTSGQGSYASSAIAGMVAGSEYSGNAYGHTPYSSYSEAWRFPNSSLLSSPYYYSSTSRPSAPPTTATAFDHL
# [18] = non-specific cell cytotoxicity, dose response, cytotoxicity control for PAX8 inhibitor project, plate reader, dry powder samples (AID 743021); type: functional, cell-based
# [19] = molecular target: Cytochrome P450 2C19 (Homo sapiens, UniProt P33261); experiment: Cytochrome panel assay with activity outcomes. Panel member name: p450-cyp2c19 Compounds with AC50 equal or less than 10 uM are considered active; type: functional; conditions: read-out: AC50
# Sequence of Cytochrome P450 2C19 (P33261 whole entry): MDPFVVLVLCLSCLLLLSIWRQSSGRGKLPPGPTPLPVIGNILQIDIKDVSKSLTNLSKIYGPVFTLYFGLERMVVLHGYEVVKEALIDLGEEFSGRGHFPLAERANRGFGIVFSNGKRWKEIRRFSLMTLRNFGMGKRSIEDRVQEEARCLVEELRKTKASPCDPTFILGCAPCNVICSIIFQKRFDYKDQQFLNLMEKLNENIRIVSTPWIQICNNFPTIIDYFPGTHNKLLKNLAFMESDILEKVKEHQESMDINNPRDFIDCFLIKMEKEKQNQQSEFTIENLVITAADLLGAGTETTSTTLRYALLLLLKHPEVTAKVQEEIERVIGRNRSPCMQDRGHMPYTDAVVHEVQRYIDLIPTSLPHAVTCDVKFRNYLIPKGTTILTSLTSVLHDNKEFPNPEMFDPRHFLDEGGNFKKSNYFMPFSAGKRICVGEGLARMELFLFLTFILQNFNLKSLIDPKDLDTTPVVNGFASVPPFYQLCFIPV
# [20] = NIH-3T3 fibroblast cytotoxicity, dose response, cytotoxicity control, cell-based, fluorescence, Alamar Blue, secondary assay (AID 2327); type: functional;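 further: NIH-3T3 mouse fibroblasts cultured with fluconazole at 8 µg/mL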
# [21] = C. albicans growth with fluconazole, confirmation, fluorescence, retest (AID 2467); type: functional, cell-based
# [22] = inhibitors of intracellular T. cruzi replication, confirmation, NIH3T3 host cells, beta-gal luminescence (AID 2044); type: functional, cell-based;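 further: intracellular parasites grown in NIH/3T3 mouse fibroblasts as host cells; luminescent beta-galactosidase reporter signal from transgenic T. cruzi replicating inside host cells; inhibitors lower the luminescence signal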
# [23] = cytotoxicity toward NIH3T3 fibroblasts, dose response, counter-screen, cell-based, ATP luminescence, mouse fibroblasts (AID 2010); type: functional;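 further: cells exposed to compound for about 90 hours before reading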
# [24] = molecular target: Glucose-6-phosphate 1-dehydrogenase (Homo sapiens, UniProt P11413); experiment: human G6PD enzyme inhibitors, dose response, selectivity assay for P. falciparum G6PD inhibitor project, biochemical, fluorescence (AID 504792); type: functional
# Sequence of Glucose-6-phosphate 1-dehydrogenase (P11413 whole entry): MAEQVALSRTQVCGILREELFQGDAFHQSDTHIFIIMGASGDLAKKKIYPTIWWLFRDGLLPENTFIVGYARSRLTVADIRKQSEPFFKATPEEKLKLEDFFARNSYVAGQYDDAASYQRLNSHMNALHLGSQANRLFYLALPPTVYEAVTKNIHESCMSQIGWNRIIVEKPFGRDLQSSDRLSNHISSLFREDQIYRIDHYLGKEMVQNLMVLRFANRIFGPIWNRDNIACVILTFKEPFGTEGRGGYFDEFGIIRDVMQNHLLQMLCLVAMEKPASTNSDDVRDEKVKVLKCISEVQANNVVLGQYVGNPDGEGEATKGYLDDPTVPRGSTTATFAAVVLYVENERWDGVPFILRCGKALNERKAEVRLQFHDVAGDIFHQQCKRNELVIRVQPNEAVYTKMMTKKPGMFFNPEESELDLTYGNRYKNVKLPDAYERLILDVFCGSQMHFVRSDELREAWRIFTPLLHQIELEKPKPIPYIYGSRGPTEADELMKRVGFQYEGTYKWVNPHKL
# [25] = intracellular Trypanosoma cruzi inhibitors in host cells – cell-based, plate reader, cherry-pick samples, set 3, dose response (AID 651818); type: functional;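 further: compounds incubated with infected cells for about four days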
# [26] = miR-122 activators in hepatoma reporter cells, dose response, cell-based, Huh7 psiCHECK-miR122, Renilla luciferase, cherry-picked (AID 651956); type: functional;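 further: huh7 hepatoma cells stably carrying a psiCHECK-2 miR-122 sensor plasmid; renilla luciferase signal reporting endogenous miR-122 activity after 48 h compound exposure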
# [27] = HEK293T cytotoxicity, dose response, cytotoxicity control for miR-122 modulator project, cell-based, inhibitor set, cherry-pick, set 2 (AID 720697); type: functional
# [28] = inhibitors of HIV Env-driven cell fusion, dose response, cherry-pick (AID 652057); type: functional, cell-based
# [29] = ZM109 Env clade C HIV-1 fusion inhibitors, dose response, HeLa effector, CEM target cells, luciferase, cherry-pick (AID 652058); type: functional, cell-based
# [30] = inhibitors of clade B AD8 Env fusion, dose response, cell-based, cherry-pick (AID 652062); type: functional;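 further: luciferase signal from cell-cell fusion driven by HIV-1 clade B AD8 Env; potency is for inhibitors of fusion seen as a drop in luminescence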
# [31] = cells; type: functional, cell-based
# [32] = cells; type: functional, cell-based; remark: listed apart in the source
# [33] = cytotoxicity in HEK-293T cells, dose response, cytotoxicity control for TCR NF-kB inhibitor project, luminescence, T-cell screen hits (AID 489026); type: functional, cell-based;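 further: cells exposed to compound about 14 hours before the viability readout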
# [34] = molecular target: T1, Microphthalmia-associated transcription factor (Homo sapiens, UniProt O75030); experiment: TRPM1 promoter luciferase signal decrease, dose response, MITF inhibitor project, cell-based, SK-MEL-5, cherry-picked, set 3 (AID 493073); type: functional
# T1 sequence (O75030 whole entry): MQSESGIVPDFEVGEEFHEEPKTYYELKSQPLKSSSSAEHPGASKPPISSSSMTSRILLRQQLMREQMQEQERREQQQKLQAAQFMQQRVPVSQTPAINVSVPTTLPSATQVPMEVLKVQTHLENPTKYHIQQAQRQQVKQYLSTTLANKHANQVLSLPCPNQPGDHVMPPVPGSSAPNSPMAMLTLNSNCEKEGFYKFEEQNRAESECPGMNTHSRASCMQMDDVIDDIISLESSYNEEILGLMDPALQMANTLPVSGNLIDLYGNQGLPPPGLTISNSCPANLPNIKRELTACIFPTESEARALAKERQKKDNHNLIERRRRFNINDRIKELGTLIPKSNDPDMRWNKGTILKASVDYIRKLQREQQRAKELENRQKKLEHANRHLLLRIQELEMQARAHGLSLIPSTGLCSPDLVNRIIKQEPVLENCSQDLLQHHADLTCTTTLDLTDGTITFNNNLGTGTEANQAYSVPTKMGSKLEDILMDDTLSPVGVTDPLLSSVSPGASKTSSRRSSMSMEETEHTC
# [35] = system: HEK293; experiment: inhibitors of LMP1-driven NF-kB reporter, dose response, cell-based, HEK293, luciferase, cherry-pick (AID 588343); type: functional; conditions: Homo sapiens
# [36] = molecular target: T2, Bcl-2-related protein A1 (Mus musculus, UniProt Q07440); type: functional;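 further: confirmatory dose–response counterscreen on Bfl-1, used to check hits from a UBC13 polyubiquitin inhibitor campaign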
# T2 sequence (Q07440 whole entry): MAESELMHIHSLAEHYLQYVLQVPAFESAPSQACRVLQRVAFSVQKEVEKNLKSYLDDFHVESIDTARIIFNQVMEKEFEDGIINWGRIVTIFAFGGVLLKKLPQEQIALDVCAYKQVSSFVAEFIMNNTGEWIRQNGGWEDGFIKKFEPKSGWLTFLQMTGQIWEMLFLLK
# [37] = cytotoxicity in HEK-293T cells, dose response, cytotoxicity control for BCR NF-kB inhibitor project, luminescence, B-cell screen hits (AID 489021); type: functional, cell-based;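 further: HEK-293T cells carrying an NF-kB luciferase reporter; cells exposed to compound for about 14 hours before viability readout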
compound,measurement,setting,value
COc1cccc(-n2c(SCC(=O)c3c[nH]c4ccccc34)nc3ccccc3c2=O)c1,CC50,[1],> 25 µM (active)
O=C(CSc1nc2cc(Cl)c[nH]c-2n1)Nc1cccc(F)c1,CC50,[2],> 40 µM (active)
COC(=O)c1sccc1NC(=O)CSc1ccccc1NS(=O)(=O)c1cc(Cl)ccc1Cl,EC50,[3],6.42 µM (active)
same,IC50,[4],8.22 µM (active)
same,IC50,[5],> 20 µM (inactive)
same,EC50,[6],6.35 µM (active)
same,IC50,[7],5.68 µM (active)
same,IC50,[8],> 20 µM (inactive)
O=C(c1ccc(S(=O)(=O)c2ccc(F)cc2)c([N+](=O)[O-])c1)N1CCCCCC1,EC50,[3],4.38 µM (active)
same,IC50,[4],5.7 µM (active)
same,IC50,[5],> 20 µM (inactive)
same,EC50,[6],14.8 µM (active)
same,IC50,[7],5.8 µM (active)
same,IC50,[8],> 20 µM (inactive)
same,AC50,[9],2.38 µM (active)
same,AC50,[10],9.68 µM (active)
CC(C)(C)c1ccc(CN2N=Nc3ccccc3S2(=O)=O)cc1,IC50,[11],24.1 µM (active)
Nc1c2c(nc3ccn(Cc4ccccc4)c(=O)c13)CCC2,CC50,[12],> 40 µM (active)
Cc1cc(S)nc(-c2ccccn2)n1,CC50,[2],31.8 µM (active)
COC/C=C/C1=CC2=CC(=O)C(C)(OC(=O)c3ccco3)C(=O)C2=CO1 (stereo unspecified),IC50,[11],3.7 µM (active)
CC1CCN(CC(=O)Nc2ccccc2C#N)CC1,IC50,[13],> 50 µM (not active)
O=C(NCCN1CCN(Cc2ccccc2)CC1)c1cc2c(O)nc3ccccc3c2s1,EC50,[14],13 µM (active)
same,EC50,[15],14.3 µM (active)
CC(=O)Nc1nc(-c2ccc(Cl)cc2)nc(C)c1C(C)=O,IC50,[16],> 67.6 µM (inactive)
CSc1nc(-c2ccccc2)nc(N2CCOCC2)c1C(C)=O,IC50,[13],> 50 µM (not active)
Cc1ccc2c(CC(=O)OCC(=O)Nc3ccc(Cl)cn3)coc2c1,AC50,[17],14.2 µM (active)
same,AC50,[18],52.7 µM (active)
CCC(C)Oc1ccccc1C1CC(=O)NC2=C1C(=O)CCC2 (stereo unspecified),EC50,[14],12.5 µM (active)
same,EC50,[15],12.7 µM (active)
O=c1oc(-c2cccnc2)nc2ccccc12,IC50,[13],0.966 µM (active)
CC(CC(=O)Nc1ccc(Cl)c([N+](=O)[O-])c1)c1ccccc1 (stereo unspecified),CC50,[12],30.7 µM (active)
same,AC50,[19],2.51 µM (inconclusive)
Oc1ccc(CN2CCCCC2)c2cccnc12,EC50,[20],> 150 µM (inactive)
same,EC50,[21],> 38 µM (not active)
same,EC50,[22],1.78 µM (active)
same,EC50,[14],3.45 µM (active)
same,EC50,[23],11.4 µM (active)
same,EC50,[15],3 µM (active)
O=C(CSc1nc2ccccc2[nH]1)NC1CCCc2ccccc21 (stereo unspecified),IC50,[24],> 80 µM (inactive)
COc1cc(S(=O)(=O)N2CCOCC2)ccc1NC(=O)COC(=O)COc1ccccc1,IC50,[13],3.63 µM (active)
Cc1ccc(CNc2nc3ccccc3n2C)cc1,IC50,[16],> 67.5 µM (inactive)
Cc1ccc(CSc2nccc(-c3c(C)nc4ccccn34)n2)cc1,CC50,[2],24.7 µM (active)
CC1(C)CC(=O)C2=C(C1)N1C(=C(C#N)C2c2ccccc2Cl)N=C(N)c2ccccc21 (stereo unspecified),EC50,[14],20.4 µM (active)
same,EC50,[15],22.7 µM (active)
Cc1cc(F)ccc1N1CCC(N2CCN(CCC(C)C)C(CCO)C2)CC1 (stereo unspecified),IC50,[13],> 50 µM (not active)
COc1ccc(/C=C2\SC(=S)N(CCC(=O)N3CCCCC3)C2=O)cc1,CC50,[1],> 25 µM (active)
C[C@H](CO)N1C[C@H](C)[C@H](CN(C)C)Oc2c(NC(=O)Nc3ccc(C(F)(F)F)cc3)cccc2C1=O,AC50,[25],3.27 µM (active)
C[C@@H]1CCCCO[C@@H](CN(C)C(=O)C2CCCCC2)[C@@H](C)CN([C@H](C)CO)C(=O)c2cc(NC(=O)Nc3ccc(C(F)(F)F)cc3)ccc2O1,AC50,[25],1.91 µM (active)
C[C@H]1CN([C@@H](C)CO)C(=O)c2cc(NS(=O)(=O)c3ccc(Cl)cc3)ccc2O[C@H]1CN(C)S(=O)(=O)c1ccc(Cl)cc1,AC50,[25],4.63 µM (active)
C[C@@H]1CN([C@@H](C)CO)C(=O)Cc2cc(NS(=O)(=O)c3cccs3)ccc2O[C@@H]1CN(C)Cc1ccc(C(=O)Nc2ccccc2N)cc1,AC50,[25],2.33 µM (active)
C/C=C/c1ccc2c(c1)O[C@H](CN(C)C(=O)c1cnccn1)[C@H](C)CN([C@@H](C)CO)S2(=O)=O,AC50,[26],26.6 µM (active)
same,AC50,[27],10.3 µM (active)
CC(C)NC(=O)Nc1ccc2c(c1)CC(=O)N([C@H](C)CO)C[C@H](C)[C@H](CN(C)S(=O)(=O)c1cccs1)O2,AC50,[28],7.82 µM (active)
same,AC50,[29],4.72 µM (active)
same,AC50,[30],12.8 µM (active)
COc1cccc(/C=N/Nc2ncnc3c2ncn3Cc2ccccc2)c1O,EC50,[31],6.75 µM (active)
same,EC50,[32],> 350 µM (not active)
same,IC50,[33],> 80 µM (inactive)
same,AC50,[34],4.6 µM (active)
same,AC50,[35],4.68 µM (active)
COC(=O)C[C@@H]1C[C@H]2c3cc(NS(=O)(=O)c4cccc(OC)c4)ccc3O[C@H]2[C@@H](CO)O1,AC50,[29],3.74 µM (active)
same,AC50,[30],66.1 µM (active)
COc1cc2c3c(c1)c(/N=N/C(=N)S)c(O)n3C(C)(C)C=C2C,IC50,[36],> 20 µM (inactive)
same,IC50,[37],> 80 µM (inactive)
O=C(O)c1ccc(N/N=C/C=C/c2ccccc2[N+](=O)[O-])cc1,IC50,[16],> 67.6 µM (inactive)
O=C(N/N=C/c1ccc(-c2cccc(C(F)(F)F)c2)o1)c1ccccc1O,CC50,[2],11.5 µM (active)
